Experimental data reported in patent publication US20240415918A1, “Polypeptide and its use as a CCK receptor agonist/antagonist” (Centre for Regenerative Medicine & Health, Hong Kong …, priority 2021, published 2024).
Where a SMILES comes first, the peptide text is derived from it. [ ]: non-standard residue; d: D form. The star is where a group is joined. Trp(5-OH) = N[C@@H](Cc1c[nH]c2ccc(O)cc12)C(=O)O; sY = N[C@@H](Cc1ccc(OS(=O)(=O)O)cc1)C(=O)O; Phe(3-Br) = N[C@@H](Cc1cccc(Br)c1)C(=O)O; Palmitoyl = CCCCCCCCCCCCCCCC(=O)*; Nle = CCCC[C@H](N)C(=O)O

Experiments:
[1] = target: T1, CCK-B receptors (CHO-CCK) (Homo sapiens, UniProt P32239); experiment: Calcium flux (Fluo-8) antagonist test on CHO-CCK model cells in presence of CCK8; format: cell-based
T1 construct: expressed in transfected cells; host or cells: CHO (CHO-CCK model cells)
T1 sequence (P32239 1-447): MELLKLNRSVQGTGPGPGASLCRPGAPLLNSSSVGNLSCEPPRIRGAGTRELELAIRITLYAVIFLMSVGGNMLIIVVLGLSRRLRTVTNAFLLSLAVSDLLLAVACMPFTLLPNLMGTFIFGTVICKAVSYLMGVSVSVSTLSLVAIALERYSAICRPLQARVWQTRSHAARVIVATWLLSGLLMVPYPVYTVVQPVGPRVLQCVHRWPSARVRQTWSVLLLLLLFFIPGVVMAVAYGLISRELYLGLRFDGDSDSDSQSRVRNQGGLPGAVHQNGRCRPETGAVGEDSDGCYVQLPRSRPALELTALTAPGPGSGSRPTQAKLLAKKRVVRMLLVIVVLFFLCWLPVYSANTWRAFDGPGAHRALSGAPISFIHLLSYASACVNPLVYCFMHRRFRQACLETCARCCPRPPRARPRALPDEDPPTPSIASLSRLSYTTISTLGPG

[2] = target: T1, CCK-B receptors (CHO-CCK); experiment: Calcium flux (Fluo-8) agonist test on CHO-CCK model cells; format: cell-based; settings: for EC50: CHO-CCK cells; for Agonistic Activity (%) at 10 μM: compound at 10 μM, percentage of signal of 20 nM CCK8 alone
Outline: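 Agonist-mode Fluo-8 calcium flux read on CHO-CCK cells after dye loading 30 min at 37 °C plus 30 min at room temperature.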

[3] = Fluo-8 calcium flux, 100% control = 20 nM CCK8
[4] = compound together with 10 nM CCK8, bound in μM
[5] = compound alone, 100% = 20 nM CCK8
[6] = compound together with 10 nM CCK8

Compound | EC50 [2, 5] [µM] | EC50 [1, 6] [µM] | Agonistic Activity (%) at 10 μM [2] [%] | other results
CSCC[C@H](NC(=O)[C@H](Cc1ccc(OS(=O)(=O)O)cc1)NC(=O)[C@H](CC(=O)O)NC(C)=O)C(=O)NCC(=O)N[C@@H](Cc1c[nH]c2ccccc12)C(N)=O [HT-216, Ac-Asp-Tyr(SO3H)-Met-Gly-Trp-NH2] (Ac-D[sY]MGW-NH2) |  |  |  | EC50 ([1]; in presence of 10 nM CCK8): 1.44 µM; EC50 [2, 3]: 0.588 µM
CCCC[C@H](NC(=O)[C@H](Cc1c[nH]c2ccccc12)NC(C)=O)C(=O)N[C@@H](CCC(=O)O)C(=O)N[C@@H](Cc1c[nH]c2ccc(O)cc12)C(N)=O [HT-239, Ac-D-Trp-Nle-Glu-(5-HTP)-NH2] (Ac-W[Nle]E[Trp(5-OH)]-NH2) |  |  |  | EC50 ([1]; in presence of 10 nM CCK8, bound in μM): > 10 µM; EC50 ([2]; Fluo-8 calcium flux, bound in μM): > 10 µM
CSCC[C@H](NC(=O)[C@@H](Cc1cc[nH]c1)NC(C)=O)C(=O)N[C@@H](CC(=O)O)C(=O)N[C@@H](Cc1cccc(Br)c1)C(N)=O [HT-181, Ac-D-His-Met-Asp-Phe(3-Br)-NH2] | 3.9 |  |  | EC50 [1, 4]: > 10 µM
CS(=O)(=O)CC[C@H](NC(=O)[C@H](N)Cc1c[nH]c2ccccc12)C(=O)N[C@@H](CC(=O)O)C(=O)N[C@@H](Cc1cccc(Br)c1)C(N)=O [HT-63, D-Trp-Met(O2)-Asp-Phe(3-Br)-NH2] | 6.05 | 7.5 | 48.46 | 
CS(=O)(=O)CC[C@H](NC(=O)[C@H](N)Cc1c[nH]c2ccccc12)C(=O)N[C@@H](CC(=O)O)C(=O)N[C@@H](Cc1ccc(N=[N+]=[N-])cc1)C(N)=O [HT-65, D-Trp-Met(O2)-Asp-Phe(4-N3)-NH2] |  |  | 8.35 | EC50 [1, 4]: > 10 µM
COC(=O)C[C@H](NC(=O)[C@H](CCSC)NC(=O)[C@H](N)Cc1c[nH]c2ccccc12)C(=O)N[C@@H](Cc1cccc(I)c1)C(N)=O [HT-79, D-Trp-Met-Asp(Ome)-Phe(3-I)-NH2] | 2.29 | 1.99 | 38.37 | 
CCCC[C@H](NC(=O)[C@@H](Cc1cn(C)c2ccccc12)NC(C)=O)C(=O)N[C@@H](CC(=O)O)C(=O)N[C@@H](Cc1cccc(Br)c1)C(N)=O [HT-230, Ac-(1-Me-Trp)-Nle-Asp-Phe(3-Br)-NH2] |  |  |  | EC50 ([1]; in presence of 10 nM CCK8): 0.0575 µM; EC50 [2, 3]: 0.00192 µM
CSCC[C@H](NC(=O)[C@@H](Cc1c[nH]c2ccccc12)NC(C)=O)C(=O)N[C@@H](CCC(=O)O)C(=O)N[C@@H](Cc1cccc(Br)c1)C(N)=O [HT-186, Ac-D-Trp-Met-Glu-Phe(3-Br)-NH2] (Ac-[dW]ME[Phe(3-Br)]-NH2) | 1.34 | 7.71 |  | 
CCCC[C@H](NC(=O)[C@H](Cc1c[nH]c2ccccc12)NC(C)=O)C(=O)N[C@@H](CCC(=O)O)C(=O)N[C@@H](Cc1cccc(Br)c1)C(N)=O [HT-238, Ac-D-Trp-Nle-Glu-Phe(3-Br)-NH2] |  |  |  | EC50 ([1]; in presence of 10 nM CCK8): 28.2 µM; EC50 [2, 3]: 0.0344 µM
CSCC[C@H](NC(=O)[C@H](N)Cc1c[nH]c2ccccc12)C(=O)N[C@@H](CC(=O)O)C(=O)N[C@@H](Cc1ccccc1F)C(N)=O [HT-25, D-Trp-Met-Asp-Phe(2-F)-NH2] | 0.225 | 0.603 | 89.41 | 
CS(=O)(=O)CC[C@H](NC(=O)[C@H](N)Cc1c[nH]c2ccccc12)C(=O)N[C@@H](CC(=O)O)C(=O)N[C@@H](Cc1cc(F)cc(F)c1)C(N)=O [HT-73, D-Trp-Met(O2)-Asp-Phe(3,5-DIF)-NH2] | 12.6 | 8.82 | 55.41 | 
CSCC[C@H](NC(=O)[C@@H](Cc1ccc(O)cc1)NC(C)=O)C(=O)N[C@@H](CC(=O)O)C(=O)N[C@@H](Cc1cccc(Br)c1)C(N)=O [HT-182, Ac-D-Tyr-Met-Asp-Phe(3-Br)-NH2] (Ac-[dY]MD[Phe(3-Br)]-NH2) | 0.421 | 3.3 |  | 
CSCC[C@H](NC(=O)[C@H](N)Cc1c[nH]c2ccccc12)C(=O)N[C@@H](CC(=O)O)C(=O)N[C@@H](Cc1ccc(I)cc1)C(N)=O [HT-37, D-Trp-Met-Asp-Phe(4-I)-NH2] | 0.864 | 1.22 | 52.04 | 
C[S+]([O-])CC[C@H](NC(=O)[C@H](N)Cc1c[nH]c2ccccc12)C(=O)N[C@@H](CC(=O)O)C(=O)N[C@@H](Cc1cc(Cl)cc(Cl)c1)C(N)=O (stereo partly drawn) [HT-55, D-Trp-Met(O)-Asp-Phe(3,5-DiCl)-NH2] | 1.65 | 1.79 | 62.28 | 
CSCC[C@H](NC(=O)[C@H](N)Cc1c[nH]c2ccccc12)C(=O)N[C@@H](CC(=O)O)C(=O)N[C@@H](Cc1cccc(I)c1)C(N)=O [HT-28, D-Trp-Met-Asp-Phe(3-I)-NH2] | 0.154 | 0.149 | 49.93 | 
CSCC[C@H](NC(=O)[C@H](Cc1c[nH]c2ccccc12)NC(C)=O)C(=O)N[C@@H](CC(=O)O)C(=O)N[C@@H](Cc1c[nH]c2ccccc12)C(N)=O [HT-193, Ac-Trp-Met-Asp-Trp-NH2] (Ac-WMDW-NH2) | 0.000814 | 0.057 |  | 
C[S+]([O-])CC[C@H](NC(=O)[C@H](N)Cc1c[nH]c2ccccc12)C(=O)N[C@@H](CC(=O)O)C(=O)N[C@@H](Cc1cccc(Cl)c1)C(N)=O (stereo partly drawn) [HT-43, D-Trp-Met(O)-Asp-Phe(3-Cl)-NH2] | 3.02 | 8.97 | 62.14 | 
CSCC[C@H](NC(=O)[C@H](N)Cc1c[nH]c2ccccc12)C(=O)N[C@@H](CC(=O)O)C(=O)N[C@@H](Cc1ccc(Cl)cc1)C(N)=O [HT-35, D-Trp-Met-Asp-Phe(4-CII)-NH2] | 0.18 | 0.755 | 109.16 | 
CSCC[C@H](NC(=O)[C@H](Cc1c[nH]c2ccccc12)NC(C)=O)C(=O)N[C@@H](CC(=O)O)C(=O)N[C@@H](Cc1cccc(Br)c1)C(=O)N[C@@H](C)C(N)=O [HT-201, Ac-D-Trp-Met-Asp-Phe(3-Br)-Ala-NH2] |  |  |  | EC50 ([1]; in presence of 10 nM CCK8): 3.6 µM; EC50 [2, 3]: 4.29 µM
C[S+]([O-])CC[C@H](NC(=O)[C@H](N)Cc1c[nH]c2ccccc12)C(=O)N[C@@H](CC(=O)O)C(=O)N[C@@H](Cc1cccc(Br)c1)C(N)=O (stereo partly drawn) [HT-46, D-Trp-Met(O)-Asp-Phe(3-Br)-NH2] | 3.8 | 6.24 | 53.69 | 
CCCC[C@H](NC(=O)[C@@H](Cc1cccc(Br)c1)NC(C)=O)C(=O)N[C@@H](CC(=O)O)C(=O)N[C@@H](Cc1cccc(Br)c1)C(N)=O [HT-236, Ac-Phe(3-Br)-Nle-Asp-Phe(3-Br)-NH2] |  |  |  | EC50 ([1]; in presence of 10 nM CCK8): 0.357 µM; EC50 [2, 3]: 0.0977 µM
COC(=O)C[C@H](NC(=O)[C@H](CCSC)NC(=O)[C@H](N)Cc1c[nH]c2ccccc12)C(=O)N[C@@H](Cc1cccc(Br)c1)C(N)=O [HT-80, D-Trp-Met-Asp(Ome)-Phe(3-Br)-NH2] | 0.572 | 0.807 | 57.83 | 
CSCC[C@H](NC(=O)[C@H](N)Cc1c[nH]c2ccccc12)C(=O)N[C@@H](CC(=O)O)C(=O)N[C@@H](Cc1ccc([N+](=O)[O-])cc1)C(N)=O [HT-33, D-Trp-Met-Asp-Phe(4-NO2)-NH2] | 0.241 | 1.2 | 71.20 | 
C[S+]([O-])CC[C@H](NC(=O)[C@H](N)Cc1c[nH]c2ccccc12)C(=O)N[C@@H](CC(=O)O)C(=O)N[C@@H](Cc1ccccc1F)C(N)=O (stereo partly drawn) [HT-42, D-Trp-Met(O)-Asp-Phe(2-F)-NH2] |  | 8.41 | 17.97 | 
CCCC[C@H](NC(=O)[C@@H](Cc1cn(C)c2ccccc12)NC(C)=O)C(=O)N[C@@H](CC(=O)O)C(=O)N[C@@H](Cc1cn(C)c2ccccc12)C(N)=O [HT-232, Ac-(1-Me-Trp)-Nle-Asp-(1-Me-Trp)-NH2] |  |  |  | EC50 ([1]; in presence of 10 nM CCK8): 3.28 µM; EC50 [2, 3]: 0.376 µM
CCCCCCCCCCCCCCCC(=O)NCC(=O)N[C@H](Cc1c[nH]c2ccccc12)C(=O)N[C@@H](CCCC)C(=O)N[C@@H](CC(=O)O)C(=O)N[C@@H](Cc1cccc(Br)c1)C(N)=O [HT-203, (Pal)-Gly-D-Trp-Nle-Asp-Phe(3-Br)-NH2] (Palmitoyl-G[dW][Nle]D[Phe(3-Br)]-NH2) |  |  |  | EC50 ([1]; in presence of 10 nM CCK8): 1.59 µM; EC50 [2, 3]: 0.036 µM
CCCC[C@H](NC(=O)[C@@H](Cc1c(C)[nH]c2ccccc12)NC(C)=O)C(=O)N[C@@H](CCC(=O)O)C(=O)N[C@@H](Cc1cn(C)c2ccccc12)C(N)=O [HT-247, Ac-(2-Me-Trp)-Nle-Glu-(1-Me-Trp)-NH2] |  |  |  | EC50 ([1]; in presence of 10 nM CCK8): 0.62 µM; EC50 [2, 3]: 1.9 µM
